Results: ChEMBL document CHEMBL3217594, “Structureactivity relationships of methyl-lysine reader antagonists” (Medchemcomm, 2012)
Activity calls are given as the source filed them. The rule behind the calls is not given here.

Columns and labels:
[1] = biological target: T1, Lethal(3)malignant brain tumor-like protein 4 (Homo sapiens, UniProt Q8NA19); experiment: Antagonist activity at L3MBTL4 (unknown origin) assessed as inhibition of L3MBTL4/biotinylated H2AK36Me1 peptide interaction after 30 mins by AlphaScreen assay
T1 sequence (Q8NA19 whole entry): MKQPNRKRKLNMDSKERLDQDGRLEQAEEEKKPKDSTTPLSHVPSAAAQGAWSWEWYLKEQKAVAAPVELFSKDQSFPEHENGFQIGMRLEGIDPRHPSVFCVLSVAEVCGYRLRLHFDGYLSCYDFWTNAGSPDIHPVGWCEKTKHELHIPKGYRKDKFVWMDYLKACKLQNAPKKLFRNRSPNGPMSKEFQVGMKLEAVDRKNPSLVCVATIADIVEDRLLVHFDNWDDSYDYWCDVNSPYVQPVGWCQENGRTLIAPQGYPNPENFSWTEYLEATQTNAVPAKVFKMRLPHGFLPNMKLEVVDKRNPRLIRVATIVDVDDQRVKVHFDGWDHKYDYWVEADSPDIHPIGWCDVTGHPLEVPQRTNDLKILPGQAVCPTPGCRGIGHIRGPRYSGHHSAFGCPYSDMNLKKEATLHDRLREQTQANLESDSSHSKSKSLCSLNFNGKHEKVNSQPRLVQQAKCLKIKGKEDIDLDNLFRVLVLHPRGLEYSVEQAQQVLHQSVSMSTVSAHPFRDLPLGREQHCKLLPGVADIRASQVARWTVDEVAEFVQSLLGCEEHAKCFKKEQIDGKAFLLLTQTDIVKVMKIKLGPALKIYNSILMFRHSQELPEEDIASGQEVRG

[2] = biological target: T2, Lethal(3)malignant brain tumor-like protein 1 (Homo sapiens) (UniProt Q9Y468); settings: Plus RIL, 30 uM
T2 sequence (whole entry): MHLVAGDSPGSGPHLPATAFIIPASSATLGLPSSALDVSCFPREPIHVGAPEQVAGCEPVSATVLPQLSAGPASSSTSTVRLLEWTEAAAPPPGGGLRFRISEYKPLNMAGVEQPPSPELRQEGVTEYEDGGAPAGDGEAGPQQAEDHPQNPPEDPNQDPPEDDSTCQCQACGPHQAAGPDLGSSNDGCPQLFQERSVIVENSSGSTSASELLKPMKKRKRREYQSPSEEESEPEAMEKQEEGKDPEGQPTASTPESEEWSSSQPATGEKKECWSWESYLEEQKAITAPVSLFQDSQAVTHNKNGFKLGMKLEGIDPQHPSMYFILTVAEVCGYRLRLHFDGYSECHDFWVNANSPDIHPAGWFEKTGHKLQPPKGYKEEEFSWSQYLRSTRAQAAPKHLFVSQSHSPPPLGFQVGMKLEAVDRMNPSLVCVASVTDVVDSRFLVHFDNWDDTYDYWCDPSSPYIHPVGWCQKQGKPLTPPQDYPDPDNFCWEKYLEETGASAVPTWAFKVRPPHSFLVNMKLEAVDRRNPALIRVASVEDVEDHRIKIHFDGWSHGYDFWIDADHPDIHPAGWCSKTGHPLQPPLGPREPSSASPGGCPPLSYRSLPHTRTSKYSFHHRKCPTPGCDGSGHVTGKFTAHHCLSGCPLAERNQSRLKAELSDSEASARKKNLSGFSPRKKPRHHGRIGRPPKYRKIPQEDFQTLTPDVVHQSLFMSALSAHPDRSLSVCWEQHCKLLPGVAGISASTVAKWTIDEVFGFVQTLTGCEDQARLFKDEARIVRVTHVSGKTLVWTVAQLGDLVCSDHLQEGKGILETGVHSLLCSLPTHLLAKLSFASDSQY

[3] = biological target: T3, Lethal(3)malignant brain tumor-like protein 3 (Homo sapiens, UniProt Q96JM7); experiment: Antagonist activity at His-tagged L3MBTL3 (unknown origin) assessed as inhibition of L3MBTL3/biotinylated H4K20Me2 peptide interaction after 30 mins by AlphaScreen assay
T3 sequence (Q96JM7 whole entry): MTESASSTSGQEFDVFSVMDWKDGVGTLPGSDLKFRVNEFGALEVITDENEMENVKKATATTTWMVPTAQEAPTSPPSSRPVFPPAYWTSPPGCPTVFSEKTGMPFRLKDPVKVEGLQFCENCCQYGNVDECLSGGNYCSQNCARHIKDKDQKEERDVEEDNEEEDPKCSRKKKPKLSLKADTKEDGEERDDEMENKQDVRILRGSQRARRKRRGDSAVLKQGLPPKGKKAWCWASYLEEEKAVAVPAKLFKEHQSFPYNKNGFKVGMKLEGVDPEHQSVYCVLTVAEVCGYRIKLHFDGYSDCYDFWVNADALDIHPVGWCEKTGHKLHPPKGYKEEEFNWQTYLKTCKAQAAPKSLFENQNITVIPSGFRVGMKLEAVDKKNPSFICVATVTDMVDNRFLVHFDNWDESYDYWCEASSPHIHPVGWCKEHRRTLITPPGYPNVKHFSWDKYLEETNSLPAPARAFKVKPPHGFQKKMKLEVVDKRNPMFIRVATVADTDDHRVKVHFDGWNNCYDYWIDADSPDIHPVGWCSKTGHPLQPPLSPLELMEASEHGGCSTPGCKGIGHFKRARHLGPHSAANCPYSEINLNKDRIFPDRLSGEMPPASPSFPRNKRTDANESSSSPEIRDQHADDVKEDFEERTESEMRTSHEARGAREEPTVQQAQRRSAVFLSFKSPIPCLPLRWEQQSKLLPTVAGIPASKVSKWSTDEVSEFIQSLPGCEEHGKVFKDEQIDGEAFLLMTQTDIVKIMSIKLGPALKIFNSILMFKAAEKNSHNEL

[4] = biological target: T4, Lethal(3)malignant brain tumor-like protein 4 (Homo sapiens) (UniProt Q8NA19); experiment: Antagonist activity at L3MBTL4 (unknown origin) assessed as inhibition of L3MBTL4/biotinylated H2AK36Me1 peptide interaction at 30 uM after 30 mins by AlphaScreen assay
T4 sequence (whole entry): T1 sequence (Q8NA19 whole entry)

Structure (SMILES)	IC50 [1]	inhibition [2]	IC50 [3]	inhibition [4]
Brc1cccc(CN2CCC(N3CCCC3)CC2)c1	> 30 µM	20%	13.3 µM	10%
O=C(c1cccc(Br)c1)N1CCN(C2CCCC2)CC1	> 30 µM	inactive	> 30 µM	inactive
CC1CCCN1C1CCN(C(=O)c2cccc(Br)c2)CC1 (configuration not stated)	> 30 µM	6%	> 30 µM	inactive
CC(c1cccc(Br)c1)N1CCC(N2CCCC2)CC1 (racemic)	> 30 µM	25%	16 µM	13%
O=C(O)c1cccc(C(=O)N2CCC(N3CCCC3)CC2)c1	> 30 µM	31%	6.9 µM	26%
O=C(c1cccc(Br)c1)N1CCC(N2CCCC2)C1 (configuration not stated)	> 30 µM	18%	> 30 µM	inactive
C[N+]1(C2CCN(C(=O)c3cccc(Br)c3)CC2)CCCC1	> 30 µM	inactive	> 30 µM	inactive
O=C(c1cccc(Br)c1)N1CCC(C2CCCN2)CC1 (configuration not stated)	> 30 µM	6%	–	inactive
O=C(c1cccc(Br)c1)N1CCC(N2CCCC2)CC1	15.6 µM	–	3.2 µM	–
CN1CCCC1C1CCN(C(=O)c2cccc(Br)c2)CC1 (configuration not stated)	> 30 µM	3%	21 µM	inactive
O=C(c1cccc(Br)c1)N1CCC(N2CCCCC2)CC1	> 30 µM	5%	> 30 µM	inactive
CN(C)C1CCN(C(=O)c2cccc(Br)c2)CC1	> 30 µM	5%	> 30 µM	inactive
O=S(=O)(c1cccc(Br)c1)N1CCC(N2CCCC2)CC1	> 30 µM	48%	3.7 µM	6%
CNC1CCN(C(=O)c2cccc(Br)c2)CC1	> 30 µM	inactive	> 30 µM	inactive
O=C(c1cccc(Br)c1)N1CCC(N2CCC2)CC1	> 30 µM	32%	23.8 µM	4%
